Results as given in US11034650B2, “Compounds useful for treating a Mannheimia haemolytica or Histophilus somni infection” (Intervet Inc., priority 2016, dated 2021).
Converted amounts (≈) assume the structure as drawn.

How the values were obtained:
Type in all cases: cell-based
[1] = test system: Mannheimia haemolytica MH 13065 (XB0446-6003.9, BRD field isolate); test: MIC, broth-microdilution (CLSI VET01-A4), strain MH 13065; details: Mannheimia haemolytica strain MH 13065, broth-microdilution; unit assumed
Method in brief: (§1)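 MIC is the lowest compound concentration showing no visible growth by eye, read from doubling-dilution microdilution trays. Method followed CLSI VET01-A4, with interpretation under CLSI VET01-S3.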

[2] = test system: Pasteurella multocida PM 12080 (IV102277-0093, BRD field isolate); test: MIC, broth-microdilution (CLSI VET01-A4), strain PM 12080; details: Pasteurella multocida strain PM 12080, broth-microdilution; unit assumed
Method in brief: as §1

[3] = test system: Pasteurella multocida PM 6267 (P 2225 (L386), reference strain, mouse infection strain); test: MIC, broth-microdilution (CLSI VET01-A4), strain PM 6267; details: Pasteurella multocida strain PM 6267, broth-microdilution; unit assumed
Method in brief: as §1

[4] = test system: Mannheimia haemolytica MH 6357 (M7/2, reference strain, cattle infection strain); test: MIC, broth-microdilution (CLSI VET01-A4), strain MH 6357; details: Mannheimia haemolytica strain MH 6357, broth-microdilution; unit assumed
Method in brief: as §1

[5] = test system: Pasteurella multocida PM 6391 (ATCC 43137, reference strain); test: MIC, broth-microdilution (CLSI VET01-A4), strain PM 6391; details: Pasteurella multocida strain PM 6391, broth-microdilution; unit assumed
Method in brief: as §1

[6] = test system: Pasteurella multocida PM 10775 (080130003051, BRD field isolate); test: MIC, broth-microdilution (CLSI VET01-A4), strain PM 10775; details: Pasteurella multocida strain PM 10775, broth-microdilution; unit assumed
Method in brief: as §1

[7] = test system: Mannheimia haemolytica MH 12587 (1071, BRD field isolate, macrolide-resistance: erm+, E+); test: MIC, broth-microdilution (CLSI VET01-A4), strain MH 12587; details: Mannheimia haemolytica strain MH 12587, broth-microdilution; unit assumed
Method in brief: as §1

[8] = test system: Mannheimia haemolytica MH 10720 (154, BRD field isolate); test: MIC, broth-microdilution (CLSI VET01-A4), strain MH 10720; details: Mannheimia haemolytica strain MH 10720, broth-microdilution; unit assumed
Method in brief: as §1

[9] = test system: Mannheimia haemolytica MH 6374 (ATCC 33396, reference strain); test: MIC, broth-microdilution (CLSI VET01-A4), strain MH 6374; details: Mannheimia haemolytica strain MH 6374, broth-microdilution; unit assumed
Method in brief: as §1

[10] = test system: Mannheimia haemolytica MH 13093 (XB0472-6014.1, BRD field isolate); test: MIC, broth-microdilution (CLSI VET01-A4), strain MH 13093; details: Mannheimia haemolytica strain MH 13093, broth-microdilution; unit assumed
Method in brief: as §1

SMILES | MIC MH 13065 [1] | MIC PM 12080 [2] | MIC PM 6267 [3] | MIC MH 6357 [4] | MIC PM 6391 [5] | MIC PM 10775 [6] | MIC MH 12587 [7] | MIC MH 10720 [8] | MIC MH 6374 [9] | MIC MH 13093 [10]
CC(C)(C(NC(=O)c1ccc(C#Cc2ccc(CNCc3cccs3)cc2)cc1)C(=O)NO)[N+](=O)[O-] (centres unmarked) [Compound 289] | 0.8 µg/mL (≈ 1.58 µM) | ≤ 0.1 µg/mL | 0.8 µg/mL (≈ 1.58 µM) | 0.4 µg/mL (≈ 0.79 µM) | 0.4 µg/mL (≈ 0.79 µM) | 0.4 µg/mL (≈ 0.79 µM) | 1.6 µg/mL (≈ 3.16 µM) | ≤ 0.1 µg/mL | 0.8 µg/mL (≈ 1.58 µM) | 0.8 µg/mL (≈ 1.58 µM)
CC(C)(O)[C@H](NC(=O)c1ccc(C#Cc2ccc(CNC3CC3)s2)cc1)C(=O)NO [Compound 290] | ≤ 0.1 µg/mL | ≤ 0.1 µg/mL | ≤ 0.1 µg/mL | ≤ 0.1 µg/mL | 0.2 µg/mL (≈ 0.468 µM) | ≤ 0.1 µg/mL | 0.4 µg/mL (≈ 0.936 µM) | ≤ 0.1 µg/mL | ≤ 0.1 µg/mL | 0.2 µg/mL (≈ 0.468 µM)
C=CCNCc1ccc(C#Cc2ccc(C(=O)N[C@H](C(=O)NO)C(C)(C)O)cc2)s1 [Compound 291] | 0.4 µg/mL (≈ 0.936 µM) | ≤ 0.1 µg/mL | 0.8 µg/mL (≈ 1.87 µM) | ≤ 0.1 µg/mL | 0.4 µg/mL (≈ 0.936 µM) | ≤ 0.1 µg/mL | 0.8 µg/mL (≈ 1.87 µM) | ≤ 0.1 µg/mL | ≤ 0.1 µg/mL | 0.4 µg/mL (≈ 0.936 µM)
CC(C)(O)[C@H](NC(=O)c1ccc(C#Cc2ccc(CN3CCOCC3)s2)cc1)C(=O)NO [Compound 293] | 0.4 µg/mL (≈ 0.874 µM) | ≤ 0.1 µg/mL | 1.6 µg/mL (≈ 3.5 µM) | 0.4 µg/mL (≈ 0.874 µM) | 0.2 µg/mL (≈ 0.437 µM) | ≤ 0.1 µg/mL | 0.8 µg/mL (≈ 1.75 µM) | ≤ 0.1 µg/mL | 0.8 µg/mL (≈ 1.75 µM) | 0.8 µg/mL (≈ 1.75 µM)
CC(C)(O)[C@H](NC(=O)c1ccc(C#Cc2ccc(CNCc3ccccc3)s2)cc1)C(=O)NO [Compound 294] | ≤ 0.1 µg/mL | ≤ 0.1 µg/mL | 0.8 µg/mL (≈ 1.68 µM) | ≤ 0.1 µg/mL | 0.2 µg/mL (≈ 0.419 µM) | ≤ 0.1 µg/mL | 0.4 µg/mL (≈ 0.838 µM) | ≤ 0.1 µg/mL | 0.2 µg/mL (≈ 0.419 µM) | 0.4 µg/mL (≈ 0.838 µM)
COc1ccc(CNCc2ccc(C#Cc3ccc(C(=O)N[C@H](C(=O)NO)C(C)(C)O)cc3)s2)cc1 [Compound 295] | 0.2 µg/mL (≈ 0.394 µM) | ≤ 0.1 µg/mL | 0.8 µg/mL (≈ 1.58 µM) | ≤ 0.1 µg/mL | 0.4 µg/mL (≈ 0.788 µM) | ≤ 0.1 µg/mL | 0.8 µg/mL (≈ 1.58 µM) | ≤ 0.1 µg/mL | 0.4 µg/mL (≈ 0.788 µM) | 0.4 µg/mL (≈ 0.788 µM)
CC(C)(O)[C@H](NC(=O)c1ccc(C#Cc2ccc(CNCc3cccnc3)s2)cc1)C(=O)NO [Compound 296] | ≤ 0.1 µg/mL | ≤ 0.1 µg/mL | 0.8 µg/mL (≈ 1.67 µM) | ≤ 0.1 µg/mL | ≤ 0.1 µg/mL | ≤ 0.1 µg/mL | 0.4 µg/mL (≈ 0.836 µM) | ≤ 0.1 µg/mL | 0.2 µg/mL (≈ 0.418 µM) | 0.4 µg/mL (≈ 0.836 µM)
CC(C)(O)[C@H](NC(=O)c1ccc(C#Cc2ccc(CNCc3ccccn3)s2)cc1)C(=O)NO [Compound 297] | 0.4 µg/mL (≈ 0.836 µM) | 0.2 µg/mL (≈ 0.418 µM) | 0.4 µg/mL (≈ 0.836 µM) | 0.2 µg/mL (≈ 0.418 µM) | ≤ 0.1 µg/mL | ≤ 0.1 µg/mL | 0.8 µg/mL (≈ 1.67 µM) | ≤ 0.1 µg/mL | 0.4 µg/mL (≈ 0.836 µM) | 0.4 µg/mL (≈ 0.836 µM)
CC(C)(O)[C@H](NC(=O)c1ccc(C#Cc2ccc(CNCc3ccco3)s2)cc1)C(=O)NO [Compound 298] | 0.2 µg/mL (≈ 0.428 µM) | ≤ 0.1 µg/mL | 0.4 µg/mL (≈ 0.856 µM) | ≤ 0.1 µg/mL | ≤ 0.1 µg/mL | ≤ 0.1 µg/mL | 0.4 µg/mL (≈ 0.856 µM) | ≤ 0.1 µg/mL | 0.2 µg/mL (≈ 0.428 µM) | 0.4 µg/mL (≈ 0.856 µM)
Cc1cnc(CNCc2ccc(C#Cc3ccc(C(=O)N[C@H](C(=O)NO)C(C)(C)O)cc3)s2)o1 [Compound 299] | 0.4 µg/mL (≈ 0.829 µM) | 0.4 µg/mL (≈ 0.829 µM) | 0.4 µg/mL (≈ 0.829 µM) | 0.2 µg/mL (≈ 0.414 µM) | ≤ 0.1 µg/mL | ≤ 0.1 µg/mL | 0.8 µg/mL (≈ 1.66 µM) | ≤ 0.1 µg/mL | 0.4 µg/mL (≈ 0.829 µM) | 0.4 µg/mL (≈ 0.829 µM)
CSC(C)(C)[C@H](NC(=O)c1ccc(C#Cc2ccc(CNC3CC3)s2)cc1)C(=O)NO [Compound 300] | 0.4 µg/mL (≈ 0.874 µM) | 0.4 µg/mL (≈ 0.874 µM) | 0.4 µg/mL (≈ 0.874 µM) | 0.4 µg/mL (≈ 0.874 µM) | ≤ 0.1 µg/mL | ≤ 0.1 µg/mL | 0.8 µg/mL (≈ 1.75 µM) | ≤ 0.1 µg/mL | 0.8 µg/mL (≈ 1.75 µM) | 0.8 µg/mL (≈ 1.75 µM)
